# Data from patent publication US4304864A, “Long-chain acyl-coenzyme-A synthetase” (Mitsubishi Chemical Industries, Limited, priority 1978, dated 1981).
# “Also recorded” adds a separate entry of the source.
# Experiments:
# acyl-CoA synthetase [1] = experiment: Substrate specificity of acyl-CoA synthetase (fatty acids); format: biochemical, Candida lipolytica; details: for Activity (μmol acyl-CoA/min.): fatty acid concentration 0.25 mM
# Protocol: (§1) The sssay of enzyme activity was carried out by the Banis and Tove method. (See Biochemica et Biophysica Acta, Vol. 348, pages 210-220 (1974)). According to this method, the reaction solution contained 20 μmol of Tris-HCl buffer (pH 7.5), 3 μmol of ATP, 2 μmol of MgCl2, 1.0 μmol of dithiothreitol, 0.2 μmol of [U-^14 C] potassium palmitate (0.2 mCi/mmol), 0.32 μmol of surfactant T, 0.2 μmol of CoA and an aliquot of the enzyme solution in a total volume of 0.2 ml. After a 5 minute preincubation, either the CoA or the enzyme solution which had been kept from incorporating in the reaction solution was added to initiate the reaction (at 25° C.). At the end of a 10 minute reaction period, 2.5 ml of isopropanol-n-heptane-1 M sulfuric acid (40:10:1) was added to stop the reaction. The solution was then extracted with heptane to remove any unreacted free fatty acid. After the aqueous layer was washed twice each with 2 ml of heptane containing 8 mg of palmitic acid, the radioactivity of the aqueous layer was measured.
# (§2) The standard reaction solution contained 100 μmol of Tris-HCl buffer (pH 7.4), 5 μmol of dithiothreitol, 1.6 μmol of surfactant T, 7.5 μmol of ATP, 10 μmol of MgCl2, 0.25 μmol of potassium oleate, 1 μmol of CoA, 0.2 μmol of potassium phosphoenolpyruvate, 0.15 μmol of NADH, 20 μg of myokinase, 30 μg of pyruvate kinase, 30 μg of lactate dehydrogenase and a certain amount of acyl-CoA synthetase per ml of the solution. A reaction solution containing all the above components except CoA was preincubated at 25° C. for one minute. The reaction was then initiated by the addition of CoA, and the rate of decrease in optical density at 340 nm which was attributed to decrease in amount of NADH was determined.
# acyl-CoA synthetase [2] = experiment: as above; format: biochemical, Candida lipolytica; details: fatty acid concentration 0.125 mM
# acyl-CoA synthetase [3] = experiment: Activator and inhibitor of the enzyme; format: biochemical, Candida lipolytica
# acyl-CoA synthetase I [4] = experiment: Specificity for nucleoside-5'-triphosphate; format: biochemical, Candida lipolytica; details: for effectiveness as nucleoside-5'-triphosphate: 7.5 mM and 15 mM
# Protocol: as §2
# (ii) Specificity for nucleoside-5'-triphosphate: Only ATP and αATP were effective. At concentrations of 7.5 mM and 15 mM, the activities measured with αATP were 78% and 61%, respectively, of those measured with ATP.
# acyl-CoA synthetase I [5] = experiment: Specificity for acyl acceptors (Vmax and apparent Km); format: biochemical, Candida lipolytica; details: for utilization as acyl acceptor: at conc. up to 5 mM; for Km / Vmax: acyl acceptor; for Vmax: CoA designated as 100%
# Protocol: as §1, §2
# The Vmax values and the apparent Km values were as follows: […]
# [6] = most purified form, prior art; cited from earlier work
molecule,measurement,setting,value
CCCCCCCCCCCCCCCCCCCC(=O)O [Arachidic acid],Activity (μmol acyl-CoA/min.),acyl-CoA synthetase [1],0.6 μmol acyl-CoA/min.
CCCCCCCCCCCCCCC(=O)O [Pentadecanoic acid],Activity (μmol acyl-CoA/min.),acyl-CoA synthetase [1],18.0 μmol acyl-CoA/min.
CCCCCCCCCCCCCCCCC(=O)O [Heptadecanoic acid],Activity (μmol acyl-CoA/min.),acyl-CoA synthetase [2],22.3 μmol acyl-CoA/min.
O=C(O)CN(CCN(CC(=O)O)CC(=O)O)CC(=O)O [EDTA],activation or inhibition of the enzyme,acyl-CoA synthetase [3],inhibitor; also recorded: inhibits
CC/C=C\C/C=C\C/C=C\CCCCCCCC(=O)O [Linolenic acid],Activity (μmol acyl-CoA/min.),acyl-CoA synthetase [1],22.0 μmol acyl-CoA/min.
Nc1ncnc2c1ncn2[C@@H]1O[C@H](COP(=O)(O)OP(=O)(O)OP(=O)(O)O)[C@@H](O)[C@H]1O [ATP],effectiveness as nucleoside-5'-triphosphate,acyl-CoA synthetase I [4],effective
O[C@H](CS)[C@H](O)CS (racemic) [Dithiothreitol],utilization as acyl acceptor,acyl-CoA synthetase I [5],Not utilized
αATP,effectiveness as nucleoside-5'-triphosphate,acyl-CoA synthetase I [4],effective
same,activity relative to that measured with ATP,acyl-CoA synthetase I [4]; nucleotide 7.5 mM,78%
same,activity relative to that measured with ATP,acyl-CoA synthetase I [4]; nucleotide 15 mM,61%
Nc1nc2c(ncn2[C@@H]2O[C@H](COP(=O)(O)OP(=O)(O)OP(=O)(O)O)[C@@H](O)[C@H]2O)c(=O)[nH]1 [GTP],effectiveness as nucleoside-5'-triphosphate,acyl-CoA synthetase I [4],essentially ineffective
CC(C)(COP(=O)(O)OP(=O)(O)OC[C@H]1O[C@@H](n2cnc3c(N)ncnc32)[C@H](O)[C@@H]1O)[C@@H](O)C(=O)NCCC(=O)NCCS [Dephospho-CoA],Km,acyl-CoA synthetase I [5],110 µM
same,Vmax,acyl-CoA synthetase I [5],70%
O=C(O)CCCCCCCCCCCCCCC(=O)O [Hexadecanedioic acid],effectiveness as substrate of the enzyme,acyl-CoA synthetase [1],essentially ineffective
same,Activity (μmol acyl-CoA/min.),acyl-CoA synthetase [1],0.6 μmol acyl-CoA/min.
CCCCCCCCCCCCCC(=O)O [Myristic acid],Activity (μmol acyl-CoA/min.),acyl-CoA synthetase [1],20.8 μmol acyl-CoA/min.
CCCCCCCCCCCCC(=O)O [Tridecanoic acid],Activity (μmol acyl-CoA/min.),acyl-CoA synthetase [2],1.3 μmol acyl-CoA/min.
CC(C)(CO)[C@@H](O)C(=O)NCCC(=O)NCCS [Pantetheine],Km,acyl-CoA synthetase I [5],2500 µM
same,Vmax,acyl-CoA synthetase I [5],57%
αTTP,effectiveness as nucleoside-5'-triphosphate,acyl-CoA synthetase I [4],essentially ineffective
N[C@@H](CCC(=O)N[C@@H](CS)C(=O)NCC(=O)O)C(=O)O [Glutathione],utilization as acyl acceptor,acyl-CoA synthetase I [5],Not utilized
CC(C)(COP(=O)(O)OP(=O)(O)OC[C@H]1O[C@@H](n2cnc3c2ncn2ccnc32)[C@H](O)[C@@H]1OP(=O)(O)O)[C@@H](O)C(=O)NCCC(=O)NCCS [1:^6 N-Etheno-CoA],Km,acyl-CoA synthetase I [5],500 µM
same,Vmax,acyl-CoA synthetase I [5],40%
Nc1ncnc2c1ncn2[C@@H]1O[C@H](COP(=O)(O)OP(=O)(O)NP(=O)(O)O)[C@@H](O)[C@H]1O [adenylyl imidodiphosphonate],effectiveness as nucleoside-5'-triphosphate,acyl-CoA synthetase I [4],essentially ineffective
CCCCCCCCCCCCCCCCCCC(=O)O [Nonadecanoic acid],Activity (μmol acyl-CoA/min.),acyl-CoA synthetase [1],1.7 μmol acyl-CoA/min.
O=c1ccn([C@@H]2O[C@H](COP(=O)(O)OP(=O)(O)OP(=O)(O)O)[C@@H](O)[C@H]2O)c(=O)[nH]1 [UTP],effectiveness as nucleoside-5'-triphosphate,acyl-CoA synthetase I [4],essentially ineffective
CC(C)(COP(=O)(O)O)[C@@H](O)C(=O)NCCC(=O)NCCS [4'-Phosphopantetheine],Km,acyl-CoA synthetase I [5],3300 µM
same,Vmax,acyl-CoA synthetase I [5],63%
O=C(O)CCCCCCCCCCCCCCCO [16-Hydroxypalmitic acid],effectiveness as substrate of the enzyme,acyl-CoA synthetase [1],essentially ineffective
same,Activity (μmol acyl-CoA/min.),acyl-CoA synthetase [1],1.5 μmol acyl-CoA/min.
CC(=O)NCCS [N-Acetylcysteamine],utilization as acyl acceptor,acyl-CoA synthetase I [5],Not utilized
Nc1ccn([C@@H]2O[C@H](COP(=O)(O)OP(=O)(O)OP(=O)(O)O)[C@@H](O)[C@H]2O)c(=O)n1 [CTP],effectiveness as nucleoside-5'-triphosphate,acyl-CoA synthetase I [4],essentially ineffective
CCCCCCCCCCCCCCCC(=O)O [Palmitic acid],Activity (μmol acyl-CoA/min.),acyl-CoA synthetase [1],20.4 μmol acyl-CoA/min.
[Mg+2] [Mg^++],activation or inhibition of the enzyme,acyl-CoA synthetase [3],activator; also recorded: activated
CCCCCC/C=C\CCCCCCCC(=O)O [Palmitoleic acid],Activity (μmol acyl-CoA/min.),acyl-CoA synthetase [2],19.8 μmol acyl-CoA/min.
[Cu+2] [Cu^++],activation or inhibition of the enzyme,acyl-CoA synthetase [3],inhibitor
same,inhibition of the enzyme action,acyl-CoA synthetase [3]; concentration of 15 mM,completely inhibits
CCCCCCCC/C=C\CCCCCCCC(=O)O [Oleic acid],Activity (μmol acyl-CoA/min.),acyl-CoA synthetase [1],23.8 μmol acyl-CoA/min.
CCCCC/C=C\C/C=C\CCCCCCCC(=O)O [Linoleic acid],Activity (μmol acyl-CoA/min.),acyl-CoA synthetase [1],19.7 μmol acyl-CoA/min.
CCCCC/C=C\C/C=C\C/C=C\C/C=C\CCCC(=O)O [Arachidonic acid],Activity (μmol acyl-CoA/min.),acyl-CoA synthetase [2],1.3 μmol acyl-CoA/min.
N[C@@H](CS)C(=O)O [L-Cysteine],utilization as acyl acceptor,acyl-CoA synthetase I [5],Not utilized
"Nc1ncnc2c1ncn2[C@@H]1O[C@H](COP(=O)(O)OP(=O)(O)CP(=O)(O)O)[C@@H](O)[C@H]1O [adenylyl (β,γ-methylene)diphosphonate]",effectiveness as nucleoside-5'-triphosphate,acyl-CoA synthetase I [4],essentially ineffective
CCCCCCCCCCCC(=O)O [Lauric acid],Activity (μmol acyl-CoA/min.),acyl-CoA synthetase [1],1.0 μmol acyl-CoA/min.
CC(C)(COP(=O)(O)OP(=O)(O)OC[C@H]1O[C@@H](n2cnc3c(N)ncnc32)[C@H](O)[C@@H]1OP(=O)(O)O)[C@@H](O)C(=O)NCCC(=O)NCCS [CoA],Km,acyl-CoA synthetase I [5],42 µM
same,Vmax,acyl-CoA synthetase I [5],100%
"acyl-CoA synthetase from E. coli: prior art enzyme purified from Escherichia coli by D. Samuel et al (protein, UniProt P69451 1-561, looked up) Long-chain-fatty-acid--CoA …: MKKVWLNRYPADVPTEINPDRYQSLVDMFEQSVARYADQPAFVNMGEVMTFRKLEERSRAFAAYLQQGLGLKKGDRVALMMPNLLQYPVALFGILRAGMIVVNVNPLYTPRELEHQLNDSGASAIVIVSNFAHTLEKVVDKTAVQHVILTRMGDQLSTAKGTVVNFVVKYIKRLVPKYHLPDAISFRSALHNGYRMQYVKPELVPEDLAFLQYTGGTTGVAKGAMLTHRNMLANLEQVNATYGPLLHPGKELVVTALPLYHIFALTINCLLFIELGGQNLLITNPRDIPGLVKELAKYPFTAITGVNTLFNALLNNKEFQQLDFSSLHLSAGGGMPVQQVVAERWVKLTGQYLLEGYGLTECAPLVSVNPYDIDYHSGSIGLPVPSTEAKLVDDDDNEVPPGQPGELCVKGPQVMLGYWQRPDATDEIIKNGWLHTGDIAVMDEEGFLRIVDRKKDMILVSGFNVYPNEIEDVVMQHPGVQEVAAVGVPSGSSGEAVKIFVVKKDPSLTEESLVTFCRRQLTGYKVPKLVEFRDELPKSNVGKILRRELRDEARGKVDNKA",specific activity,[6],106 mU/mg protein
